Laboratory results reported in patent US6218438A, “Copolymer compositions for treating viral infections” (Supratek Pharma, Inc., priority 1999, dated 2001).

Tests used:
[1] = target: T1, HIV-1 reverse transcriptase (p51/p66 RT), DDDP activity (Human immunodeficiency virus type 1 group M subtype B, UniProt P03366); assay: Inhibition of DNA dependent DNA polymerase activity of RT (RT DDDP); assay type: biochemical
T1 construct: 10 ng of p51/p66 heterodimeric RT per assay were used
Procedure: BBNH and Fe(III)-BBNH complex at various concentrations were examined for the ability to inhibit RNA dependent and DNA dependent DNA polymerase activities as well as RNAse H activity of HIV-1 reverse transcriptase (RT RDDP, RT DDDP, and RT RNAse H, respectively). To analyze RT RDDP and RT DDDP the following reaction mixture (100 μl total volume) was used: 50 mM Tris-HCl (pH 7.8), 60 mM KCl, 10 mM MgCl2, 10 ng of p51/p66 RT, 0.1-0.5 units of template/primer, and 0.5-25 μM [^3 H]dNTP. Aliquots of the test compounds dissolved in DMSO were added to the reaction mixtures, incubated for 10-20 min. at 37° C. and than quenched with 500 μl of cold 20 mM sodium pyrophosphate in 10% dichloroacetic acid. After 10 min. on ice, the samples were filtered on Whatman 934-AH glass fiber filters and washed with 10% dichloroacetic acid and ethanol, and the radioactivity was determined by liquid scintillation analysis. To analyze RT RNAse H the following reaction mixture (50 μl total volume) was used: 5OmM Tris-HCl (pH 8.0), 60 mM KCl, 8 mM MgCl2, and variable amounts of ([^3 H]rG)-poly(dC). Generally, 10 ng of p51/p66 heterodimeric RT per assay were used. Aliquots of the test compounds dissolved in DMSO were added to the reaction mixtures, incubated for 20 min. at 37° C. and than quenched by placing the tubes on ice followed by the addition of 100 μl of cold 7% perchloric acid. After 10 min. on ice, the samples were centrifuged at 12,000 g for 15 min. 100 μl of the supernatants were carefully removed, and the radioactivity was determined by liquid scintillation analysis.

MT2 cells = assay: Cytotoxic activity against uninfected MT2 cells (XTT assay); assay type: cell-based, human; conditions: 4 days at 37° C., in DMSO
Procedure: BBNH and Fe(III)-BBNH complex at various concentrations were examined for cytotoxic activity against uninfected MT2 cells. Aliquots of a solution of the compounds in dimethyl sulfoxide were added to the MT2 cells (2×10^5 cells/ml) in RPMI medium containing 10% fetal bovine serum to provide defined final concentrations of test compound. The cells and test compounds were cultured for 4 days at 37° C., in the presence of 5% CO2 and then cytotoxic effect of the compounds was analyzed by using the standard XTT assay. The CC50 calculated from the results were 10±0.5 μM for BBNH and more than 1000 μM for Fe(III)-BBNH.

[2] = tested on: HIV-1 infection of MT2 cells; assay: Inhibition of HIV-1 infection of uninfected MT2 cells; assay type: cell-based; conditions: compound in DMSO, 30 min before HIV
Procedure: BBNH and Fe(III)-BBNH complex at various concentrations were examined for the ability to inhibit HIV-1 infection of uninfected MT2 cells. Aliquots of a solution of the compounds in dimethyl sulfoxide were added to uninfected MT2 cells (2×10^5 cells/ml) in RPMI medium containing 10% fetal bovine serum to provide defined final concentrations of test compound. The cells and test compounds were incubated for 30 minutes at 37° C., then inoculated with a suspension of HIV virions. The cells, test compounds and HIV were incubated for 18 h at 37° C., then the cells were collected by centrifugation, washed, and resuspended in RPMI medium containing 10% fetal bovine serum and containing the same concentration of test compound as initially employed. The cells were then cultured at 37° C. (with culture medium changes as required). HIV infection was assessed by microscopic examination of HIV-induced cytopathicity (syncytium) and/or by analysis of HIV p24 antigen levels in the culture supernatants.

[3] = Solubility of Fe(III)BBNH in organic solutions with various salts and pH; assay type: physicochemical
Procedure: The samples of Fe(III)BBNH (1 mg of each) were placed in 1 ml of following range of solvents:
The samples were intensively agitated during three hours at room temperature using a rotator. After that the samples were centrifuged at 10,000 g for 10 min. The supernatants (500 μl each) were separated and then dried by using a speed-vac centrifuge. Each sample was dissolved in 500 μl DMSO and the aliquots (50 μl each) were transferred to 96-well plate. The optical densities were determined at λ400 nm using a microplate reader. Fe(III)BBNH concentrations in the samples were then determined by using the calibration shown in Example 4A. Each concentration of Fe(III)BBNH was analyzed in triplicates.

[4] = Water solubility of Fe(III)BBNH in various Pluronic solutions; assay type: physicochemical; conditions: 180 min
Procedure: The samples of Fe(III)BBNH (1 mg of each) were placed in 1 ml of various water solutions of Pluronics. The samples were intensively agitated during three hours at room temperature using a rotator. The samples were then centrifuged at 10,000g for 10 min. The supernatants (500 μl each) were separated and then dried using a speed-vac centrifuge. Each sample was dissolved in 500 μl DMSO and aliquots (50 μl each) were transferred to 96-well plate. The optical densities were determined at λ400 nm using a microplate. The test compound concentrations in the samples were then determined by using the calibration shown in Example 4A. Each concentration of Fe(III)BBNH was analyzed in triplicates. Each concentration of Fe306 was measured in triplicates.

HIV-1 RT = HIV-1 RT (Human immunodeficiency virus type 1 BH10, UniProt P03366); assay: In vitro inhibition of HIV-1 RT enzymatic activities (RDDP, RNase H, DDDP); assay type: biochemical
cells = assay: Cytotoxicity (general statement); assay type: cell-based
[5] = Solubility in a water medium (general statement); assay type: physicochemical

## CC(C)(C)c1ccc(C(=O)NN=Cc2c(O)ccc3ccccc23)cc1.C[O-].[Cl-].[Cl-].[Fe+3] [Fe(III)-BBNH]
[1]
  IC50: 0.9 ± 0.3 µM
  Ratio BBNH/Fe(III)-BBNH (IC50), RT DDDP: 13.5
MT2 cells
  CC50: > 1000 µM
[2]
  IC50: > 50 µM
[3]; Acetonitrile:10% Ammonium Acetate (0.01 M) pH 3.0
  Concentration of Fe306 dissolved in the sample: 125.7 µg/mL
[3]; Acetonitrile:10% Ammonium Acetate (0.01 M) pH 5.0, 180 min
  Concentration of Fe306 dissolved in the sample: 223.9 µg/mL
[3]; Acetonitrile:10% Ammonium Acetate (0.01 M) pH 7.0, 180 min
  Concentration of Fe306 dissolved in the sample: 304.7 µg/mL
[3]; Acetonitrile:10% Ammonium Formate (0.01 M) pH 3.0
  Concentration of Fe306 dissolved in the sample: 172.9 µg/mL
[3]; Acetonitrile:10% Ammonium Formate (0.01 M) pH 5.0, 180 min
  Concentration of Fe306 dissolved in the sample: 233.6 µg/mL
[3]; Acetonitrile:10% Ammonium Formate (0.01 M) pH 6.2, 180 min
  Concentration of Fe306 dissolved in the sample: 200.1 µg/mL
[3]; Methanol:10% 0.01 M phosphate buffer pH 3.0
  Concentration of Fe306 dissolved in the sample: 14.4 µg/mL
[3]; Methanol:10% 0.01 M phosphate buffer pH 5.0, 180 min
  Concentration of Fe306 dissolved in the sample: 14.9 µg/mL
[3]; Methanol:10% Ammonium Acetate (0.01 M) pH 3.0
  Concentration of Fe306 dissolved in the sample: 26.2 µg/mL
[3]; Methanol:10% Ammonium Acetate (0.01 M) pH 5.0, 180 min
  Concentration of Fe306 dissolved in the sample: 76.6 µg/mL
[3]; Methanol:10% Ammonium Acetate (0.01 M) pH 7.0, 180 min
  Concentration of Fe306 dissolved in the sample: 94.4 µg/mL
[3]; Methanol:10% Ammonium Formate (0.01 M) pH 3.0
  Concentration of Fe306 dissolved in the sample: 50.9 µg/mL
[3]; Methanol:10% Ammonium Formate (0.01 M) pH 5.0, 180 min
  Concentration of Fe306 dissolved in the sample: 43.4 µg/mL
[3]; Methanol:10% Ammonium Formate (0.01 M) pH 6.2, 180 min
  Concentration of Fe306 dissolved in the sample: 31.2 µg/mL
[4]; Pluronic F87 (2% w/v) in water
  Solubility of Fe(III)BBNH: 992.5 µg/mL
[4]; Pluronic F108 (2% w/v) in water
  Solubility of Fe(III)BBNH: 86.5 µg/mL
[4]; Pluronic F127 (2% w/v) in water
  Solubility of Fe(III)BBNH: 113.6 µg/mL
[4]; Pluronic L44 (2% w/v) in water
  Solubility of Fe(III)BBNH: 986.8 µg/mL
[4]; Pluronic L61 (1% w/v) in water
  Solubility of Fe(III)BBNH: 3.5 µg/mL
[4]; Pluronic L64 (2% w/v) in water
  Solubility of Fe(III)BBNH: 996.6 µg/mL
[4]; Pluronic L81 (2% w/v) in water
  Solubility of Fe(III)BBNH: 175.3 µg/mL
[4]; Pluronic P84 (1% w/v) in water
  Solubility of Fe(III)BBNH: 987.2 µg/mL
[4]; Pluronic P85 (1% w/v) in water
  Solubility of Fe(III)BBNH: 998.3 µg/mL
[4]; Pluronic P123 (2% w/v) in water
  Solubility of Fe(III)BBNH: 125.7 µg/mL
HIV-1 RT
  inhibitory activity against RT in vitro compared to the parent uncomplexed BBNH: improved inhibitory activity compared to the parent uncomplexed BBNH
cells
  cytotoxicity: virtually no cytotoxicity
[5]
  solubility in a water medium: practically insoluble in a water medium
